Measured values taken from PubChem BioAssay (NCI).
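Cultured in 96-well plates, cells were exposed to test compound for 48 hours across five concentrations. The concentration for full growth arrest is given as TGI.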

How the values were obtained:
Test in all cases: DTP human tumour cell line panel, 48 h
[1] = test system: UACC-257 melanoma
[2] = test system: HCT-116 colon
[3] = test system: CAKI-1 renal
[4] = test system: 786-0 renal
[5] = test system: HOP-62 NSCLC
[6] = test system: MALME-3M melanoma
[7] = test system: COLO 205 colon
[8] = test system: DMS 114 small cell lung
[9] = test system: SK-MEL-5 melanoma
[10] = test system: BT-549 breast
[11] = test system: OVCAR-4 ovarian
[12] = test system: OVCAR-8 ovarian
[13] = test system: DU-145 prostate
[14] = test system: CCRF-CEM leukemia
[15] = test system: LXFL 529 NSCLC
[16] = test system: RXF 393 renal
[17] = test system: HOP-18 NSCLC
[18] = test system: PC-3 prostate
[19] = test system: HL-60(TB) leukemia
[20] = test system: NCI-H226 lung
[21] = test system: SNB-19 CNS
[22] = test system: SF-295 CNS
[23] = test system: SNB-75 CNS
[24] = test system: MCF7 breast
[25] = test system: MDA-N
[26] = test system: HT29 colon
[27] = test system: SR leukemia
[28] = test system: SF-268 CNS
[29] = test system: DLD-1 colon
[30] = test system: SNB-78 CNS
[31] = test system: M14 melanoma
[32] = test system: U251 CNS
[33] = test system: RXF-631 renal
[34] = test system: T-47D breast
[35] = test system: DMS 273 small cell lung
[36] = test system: KM20L2 colon
[37] = test system: SK-MEL-28 melanoma
[38] = test system: UACC-62 melanoma
[39] = test system: SK-OV-3 ovarian
[40] = test system: SN12C renal
[41] = test system: LOX IMVI melanoma
[42] = test system: EKVX NSCLC
[43] = test system: A498 renal
[44] = test system: K-562 leukemia
[45] = test system: UO-31 renal
[46] = test system: KM12 colon
[47] = test system: RPMI-8226 leukemia
[48] = test system: IGROV1 ovarian
[49] = test system: HCT-15 colon
[50] = test system: NCI-H460 lung
[51] = test system: XF 498 CNS
[52] = test system: ACHN renal
[53] = test system: SK-MEL-2 melanoma
[54] = test system: HCC-2998 colon
[55] = test system: SF-539 CNS
[56] = test system: SW-620 colon
[57] = test system: NCI-H23 lung
[58] = test system: HS 578T breast
[59] = test system: OVCAR-3 ovarian
[60] = test system: MDA-MB-435
[61] = test system: A549 NSCLC
[62] = test system: OVCAR-5 ovarian
[63] = test system: TK-10 renal

`C=C(CN(C)C)C(=O)c1ccc(OC2OC(COC(C)=O)C(OC(C)=O)C(OC(C)=O)C2OC(C)=O)cc1` (stereo not drawn) showed a TGI [1] of 5.94 µM, a TGI [2] of 6.12 µM and a TGI [3] of 9.54 µM. The TGI [4] was 3.82 µM, the TGI [5] was 24.3 µM and the TGI [6] was 7.51 µM. The TGI [7] was 3.17 µM, the TGI [8] was 14.6 µM and the TGI [9] was 20.3 µM. It also gave a TGI [10] of 10.8 µM, a TGI [11] greater than 29.2 µM and a TGI [12] of 19.2 µM. The TGI [13] was 31.3 µM, the TGI [14] was 0.342 µM and the TGI [15] was 2.9 µM. The TGI [16] was 3.69 µM, the TGI [17] was 9.82 µM and the TGI [18] was 32 µM. For the same compound, the TGI [19] was greater than 100 µM, the TGI [20] was 19.8 µM and the TGI [21] was 39.4 µM. The TGI [22] was 36 µM, the TGI [23] was 38.5 µM and the TGI [24] was 5.51 µM. For the same compound, the TGI [25] was 11.1 µM, the TGI [26] was 12.2 µM and the TGI [27] was 4.94 µM. For the same compound, the TGI [28] was 62 µM, the TGI [29] was 3.83 µM and the TGI [30] was 50.8 µM. The TGI [31] was 11.2 µM, the TGI [32] was 46.2 µM and the TGI [33] was 29.3 µM. For the same compound, the TGI [34] was 15.7 µM, the TGI [35] was greater than 51.7 µM and the TGI [36] was 40.8 µM. The TGI [37] was 9.22 µM, the TGI [38] was 22.4 µM and the TGI [39] was 35.5 µM. The TGI [40] was 26.2 µM, the TGI [41] was 8.49 µM and the TGI [42] was 54.2 µM. For the same compound, the TGI [43] was 21 µM, the TGI [44] was 0.474 µM and the TGI [45] was 6.73 µM. It also gave a TGI [46] of 41.6 µM, a TGI [47] greater than 100 µM and a TGI [48] of 36.1 µM. The TGI [49] was 11.3 µM, the TGI [50] was 40.8 µM and the TGI [51] was 9.77 µM. It also gave a TGI [52] of 3.21 µM, a TGI [53] of 33.3 µM and a TGI [54] of 36.8 µM. For the same compound, the TGI [55] was 30.6 µM, the TGI [56] was 3.17 µM and the TGI [57] was 43.3 µM. For the same compound, the TGI [58] was greater than 83.7 µM, the TGI [59] was 14.5 µM and the TGI [60] was 14.2 µM. For the same compound, the TGI [61] was 45.2 µM, the TGI [62] was 37.4 µM and the TGI [63] was 7.06 µM.
